Laboratory results reported in PMC7403827 (Clinical and Translational Medicine, 2020).

Experiment: Adverse events (CTCAE 4.0) under apatinib plus gefitinib
Assay type: in vivo, human
[1] = Apatinib 500 mg Cohort (n = 6), with gefitinib 250 mg, treatment‐related AE, patients (%)

In the case of `N#CC1(c2ccc(NC(=O)c3cccnc3NCc3ccncc3)cc2)CCCC1` [Apatinib], the “Abdominal distention, ALL” value [1] is reported as 0, the “Abdominal distention, Grade 1–2” value [1] is reported as 0 and the “Abdominal distention, Grade 3–4” value [1] is reported as 0. For the same molecule, the “Blurred vision, ALL” value [1] was 1 (16.7%), the “Blurred vision, Grade 1–2” value [1] was 1 (16.7%) and the “Blurred vision, Grade 3–4” value [1] was 0. For the same molecule, the “Cough, ALL” value [1] was 1 (16.7%), the “Cough, Grade 1–2” value [1] was 1 (16.7%) and the “Cough, Grade 3–4” value [1] was 0. The “Diarrhea, ALL” value [1] was 4 (66.7%), the “Diarrhea, Grade 1–2” value [1] was 3 (50.0%) and the “Diarrhea, Grade 3–4” value [1] was 1 (16.7%). For the same molecule, the “Dizziness, ALL” value [1] was 1 (16.7%), the “Dizziness, Grade 1–2” value [1] was 1 (16.7%) and the “Dizziness, Grade 3–4” value [1] was 0. The “Dry skin, ALL” value [1] was 1 (16.7%), the “Dry skin, Grade 1–2” value [1] was 1 (16.7%) and the “Dry skin, Grade 3–4” value [1] was 0. The “Dysgeusia, ALL” value [1] was 0, the “Dysgeusia, Grade 1–2” value [1] was 0 and the “Dysgeusia, Grade 3–4” value [1] was 0. The “Eczema, ALL” value [1] was 0, the “Eczema, Grade 1–2” value [1] was 0 and the “Eczema, Grade 3–4” value [1] was 0. For the same molecule, the “Elevated ALT, ALL” value [1] was 5 (83.3%), the “Elevated ALT, Grade 1–2” value [1] was 4 (66.7%) and the “Elevated ALT, Grade 3–4” value [1] was 1 (16.7%). The “Elevated AST, ALL” value [1] was 3 (50.0%), the “Elevated AST, Grade 1–2” value [1] was 3 (50%) and the “Elevated AST, Grade 3–4” value [1] was 0. For the same molecule, the “Epistaxis, ALL” value [1] was 1 (16.7%), the “Epistaxis, Grade 1–2” value [1] was 1 (16.7%) and the “Epistaxis, Grade 3–4” value [1] was 0. The “Fatigue, ALL” value [1] was 1 (16.7%), the “Fatigue, Grade 1–2” value [1] was 1 (16.7%) and the “Fatigue, Grade 3–4” value [1] was 0. For the same molecule, the “Gastrointestinal bleeding, ALL” value [1] was 0, the “Gastrointestinal bleeding, Grade 1–2” value [1] was 0 and the “Gastrointestinal bleeding, Grade 3–4” value [1] was 0. The “HFSR, ALL” value [1] was 2 (33.3%), the “HFSR, Grade 1–2” value [1] was 2 (33.3%) and the “HFSR, Grade 3–4” value [1] was 0. For the same molecule, the “Haematuria, ALL” value [1] was 0, the “Haematuria, Grade 1–2” value [1] was 0 and the “Haematuria, Grade 3–4” value [1] was 0. The “Headache, ALL” value [1] was 0, the “Headache, Grade 1–2” value [1] was 0 and the “Headache, Grade 3–4” value [1] was 0. For the same molecule, the “Hematochezia, ALL” value [1] was 0, the “Hematochezia, Grade 1–2” value [1] was 0 and the “Hematochezia, Grade 3–4” value [1] was 0. The “Hypertension, ALL” value [1] was 4 (66.7%), the “Hypertension, Grade 1–2” value [1] was 3 (50.0%) and the “Hypertension, Grade 3–4” value [1] was 1 (16.7%). The “Increased bilirubin, ALL” value [1] was 1 (16.7%), the “Increased bilirubin, Grade 1–2” value [1] was 1 (16.7%) and the “Increased bilirubin, Grade 3–4” value [1] was 0. For the same molecule, the “Increased creatinine, ALL” value [1] was 1 (16.7%), the “Increased creatinine, Grade 1–2” value [1] was 1 (16.7%) and the “Increased creatinine, Grade 3–4” value [1] was 0. The “Leukopenia, ALL” value [1] was 1 (16.7%), the “Leukopenia, Grade 1–2” value [1] was 1 (16.7%) and the “Leukopenia, Grade 3–4” value [1] was 0. For the same molecule, the “Nausea, ALL” value [1] was 3 (50.0%), the “Nausea, Grade 1–2” value [1] was 3 (50.0%) and the “Nausea, Grade 3–4” value [1] was 0. For the same molecule, the “Neutropenia, ALL” value [1] was 1 (16.7%), the “Neutropenia, Grade 1–2” value [1] was 1 (16.7%) and the “Neutropenia, Grade 3–4” value [1] was 0. The “Oulorrhagia, ALL” value [1] was 0, the “Oulorrhagia, Grade 1–2” value [1] was 0 and the “Oulorrhagia, Grade 3–4” value [1] was 0. For the same molecule, the “Paronychia, ALL” value [1] was 0, the “Paronychia, Grade 1–2” value [1] was 0 and the “Paronychia, Grade 3–4” value [1] was 0. The “Periodontitis, ALL” value [1] was 0, the “Periodontitis, Grade 1–2” value [1] was 0 and the “Periodontitis, Grade 3–4” value [1] was 0. The “Pharyngalgia, ALL” value [1] was 0, the “Pharyngalgia, Grade 1–2” value [1] was 0 and the “Pharyngalgia, Grade 3–4” value [1] was 0. For the same molecule, the “Pneumonia (non‐interstitial), ALL” value [1] was 0, the “Pneumonia (non‐interstitial), Grade 1–2” value [1] was 0 and the “Pneumonia (non‐interstitial), Grade 3–4” value [1] was 0. For the same molecule, the “Proteinuria, ALL” value [1] was 4 (66.7%), the “Proteinuria, Grade 1–2” value [1] was 2 (33.3%) and the “Proteinuria, Grade 3–4” value [1] was 2 (33.3%). The “Pruritus, ALL” value [1] was 1 (16.7%), the “Pruritus, Grade 1–2” value [1] was 1 (16.7%) and the “Pruritus, Grade 3–4” value [1] was 0. The “Rash, ALL” value [1] was 6 (100%), the “Rash, Grade 1–2” value [1] was 6 (100%) and the “Rash, Grade 3–4” value [1] was 0. The “Stomatitis, ALL” value [1] was 0, the “Stomatitis, Grade 1–2” value [1] was 0 and the “Stomatitis, Grade 3–4” value [1] was 0. For the same molecule, the “Thrombocytopenia, ALL” value [1] was 2 (33.3%), the “Thrombocytopenia, Grade 1–2” value [1] was 2 (33.3%) and the “Thrombocytopenia, Grade 3–4” value [1] was 0. The “Trachyphonia, ALL” value [1] was 1 (16.7%), the “Trachyphonia, Grade 1–2” value [1] was 1 (16.7%) and the “Trachyphonia, Grade 3–4” value [1] was 0. For the same molecule, the “Vomiting, ALL” value [1] was 2 (33.3%), the “Vomiting, Grade 1–2” value [1] was 2 (33.3%) and the “Vomiting, Grade 3–4” value [1] was 0. The “Serious Adverse Event” value (Patient 007, Apatinib Dose 500 mg, Discontinuation, Correlation with Apatinib Yes, Remission) was “Hypertension”.
